In the supplement of paper PMC8617591:

What was measured:
[1] = tested on: Mycobacterium tuberculosis Erdman (autoluminescent); assay: total FIC50 (Loewe) at 50% inhibition, three-drug combination (log2); higher = more antagonistic
Description: (§1)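 DiaMOND equipotent three-drug combination dose responses (10 doses, 1.5- or 2-fold spacing, centred on IC90) against autoluminescent M. tuberculosis Erdman in 8 in vitro models. Read-out is OD600, or luminescence for the intracellular and dormancy models, normalised to untreated wells. Hill-fit Einf, AUC25 and GRinf are potency metrics; FIC50 and FIC90 are total Loewe fractional inhibitory concentrations as log2 (negative = synergy).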

[2] = tested on: Mycobacterium tuberculosis Erdman (autoluminescent); assay: total FIC90 (Loewe) at 90% inhibition, three-drug combination (log2); higher = more antagonistic
Description: as §1

[3] = tested on: Mycobacterium tuberculosis Erdman (autoluminescent); assay: Einf, fitted maximum growth inhibition of three-drug combination (fraction); higher = stronger maximal inhibition
Description: as §1

[4] = tested on: Mycobacterium tuberculosis Erdman (autoluminescent); assay: AUC25, normalised area under dose response up to IC25 (three-drug combination) (fraction (0-1)); higher = more potent at low dose
Description: as §1

[5] = tested on: Mycobacterium tuberculosis Erdman (autoluminescent); assay: GRinf, maximum normalised growth rate inhibition (three-drug combination) (unitless (-1 to 1)); higher = less effect (negative = killing)
Description: as §1

CC(C)/N=c1\cc2n(-c3ccc(Cl)cc3)c3ccccc3nc-2cc1Nc1ccc(Cl)cc1 [clofazimine] + NC(=O)c1cnccn1 [pyrazinamide] + CO[C@H]1/C=C/O[C@@]2(C)Oc3c(C)c(O)c4c(O)c(c(/C=N/N5CCN(C)CC5)c(O)c4c3C2=O)NC(=O)/C(C)=C\C=C\[C@H](C)[C@H](O)[C@@H](C)[C@@H](O)[C@@H](C)[C@H](OC(C)=O)[C@@H]1C [rifampicin]
Settings	AUC25, [4]	Einf, [3]	GRinf, [5]	total FIC50, [1]	total FIC90, [2]
in vitro model: acidic pH 5.7, time point: constant (~7 days, model-specific)	0.0832	0.905	-0.142	-0.249	–
in vitro model: acidic pH 5.7, time point: terminal (~4-5 doublings, model-specific)	0.0739	0.988	-0.217	-0.174	-0.451
in vitro model: intracellular J774, time point: constant = terminal	–	0.995	-0.387	–	-0.136

Settings	AUC25, [4]	Einf, [3]	GRinf, [5]	total FIC50, [1]	total FIC90, [2]
in vitro model: butyrate, time point: constant (~7 days, model-specific)	0.115	0.918	-0.091	0.234	0.505
in vitro model: butyrate, time point: terminal (~4-5 doublings, model-specific)	0.0935	0.967	-0.0615	0.0552	0.0714
in vitro model: cholesterol 0.05 mM, time point: constant (~7 days, model-specific)	0.122	0.657	-0.00769	–	–
in vitro model: cholesterol 0.05 mM, time point: terminal (~4-5 doublings, model-specific)	0.106	0.894	-0.15	1.2	–
in vitro model: cholesterol-high 0.2 mM, time point: constant (~7 days, model-specific)	0.113	0.864	-0.605	1.06	–
in vitro model: cholesterol-high 0.2 mM, time point: terminal (~4-5 doublings, model-specific)	0.107	1	-0.764	1.43	1.53
in vitro model: dormancy (butyrate + nitrate, low O2), time point: constant (~7 days, model-specific)	0.0887	0.949	0.12	-0.433	-1.62
in vitro model: dormancy (butyrate + nitrate, low O2), time point: terminal (~4-5 doublings, model-specific)	0.0801	0.994	-0.455	-0.413	0.318
in vitro model: standard 7H9 glycerol, time point: constant = terminal	0.114	0.935	0.0256	-0.361	–
in vitro model: valerate, time point: constant (~7 days, model-specific)	0.106	0.813	0.205	0.653	–
in vitro model: valerate, time point: terminal (~4-5 doublings, model-specific)	0.0497	0.896	0.165	0.53	1.88

CC(C)/N=c1\cc2n(-c3ccc(Cl)cc3)c3ccccc3nc-2cc1Nc1ccc(Cl)cc1 [clofazimine] + NNC(=O)c1ccncc1 [isoniazid] + CC(=O)NC[C@H]1CN(c2ccc(N3CCOCC3)c(F)c2)C(=O)O1 [linezolid]
Settings	AUC25, [4]	Einf, [3]	GRinf, [5]	total FIC50, [1]	total FIC90, [2]
in vitro model: acidic pH 5.7, time point: constant (~7 days, model-specific)	0.0908	0.806	-0.134	0.331	–
in vitro model: acidic pH 5.7, time point: terminal (~4-5 doublings, model-specific)	0.0672	0.939	-0.192	0.773	-0.102
in vitro model: intracellular J774, time point: constant = terminal	–	0.833	0.168	–	0.492

Settings	AUC25, [4]	Einf, [3]	GRinf, [5]	total FIC50, [1]	total FIC90, [2]
in vitro model: butyrate, time point: constant (~7 days, model-specific)	0.113	0.954	-0.181	0.73	1.87
in vitro model: butyrate, time point: terminal (~4-5 doublings, model-specific)	0.0763	0.977	-0.106	0.921	1.01
in vitro model: cholesterol 0.05 mM, time point: constant (~7 days, model-specific)	0.133	0.689	-0.0122	-0.374	–
in vitro model: cholesterol 0.05 mM, time point: terminal (~4-5 doublings, model-specific)	0.141	0.902	-0.198	4.56	0.951
in vitro model: cholesterol-high 0.2 mM, time point: constant (~7 days, model-specific)	0.124	0.934	-0.48	0.36	1.56
in vitro model: cholesterol-high 0.2 mM, time point: terminal (~4-5 doublings, model-specific)	0.109	1	-0.827	0.186	0.424
in vitro model: dormancy (butyrate + nitrate, low O2), time point: constant (~7 days, model-specific)	0.0763	0.914	0.0823	1.56	1.18
in vitro model: dormancy (butyrate + nitrate, low O2), time point: terminal (~4-5 doublings, model-specific)	0.0355	0.972	-0.074	1.16	0.734
in vitro model: standard 7H9 glycerol, time point: constant = terminal	0.126	0.959	-0.237	0.207	0.757
in vitro model: valerate, time point: constant (~7 days, model-specific)	0.128	0.885	-0.0388	0.318	–
in vitro model: valerate, time point: terminal (~4-5 doublings, model-specific)	0.0875	0.934	0.0843	0.0839	1.21

CC(C)/N=c1\cc2n(-c3ccc(Cl)cc3)c3ccccc3nc-2cc1Nc1ccc(Cl)cc1 [clofazimine] + NNC(=O)c1ccncc1 [isoniazid] + CO[C@H]1/C=C/O[C@@]2(C)Oc3c(C)c(O)c4c(O)c(c(/C=N/N5CCN(C6CCCC6)CC5)c(O)c4c3C2=O)NC(=O)/C(C)=C\C=C\[C@H](C)[C@H](O)[C@@H](C)[C@@H](O)[C@@H](C)[C@H](OC(C)=O)[C@@H]1C [rifapentine]
Settings	AUC25, [4]	Einf, [3]	GRinf, [5]	total FIC50, [1]	total FIC90, [2]
in vitro model: acidic pH 5.7, time point: constant (~7 days, model-specific)	0.0883	0.85	-0.0449	0.415	–
in vitro model: acidic pH 5.7, time point: terminal (~4-5 doublings, model-specific)	0.09	0.989	-0.185	0.259	0.468
in vitro model: intracellular J774, time point: constant = terminal	–	0.954	-0.131	–	0.169

Settings	AUC25, [4]	Einf, [3]	GRinf, [5]	total FIC50, [1]	total FIC90, [2]
in vitro model: butyrate, time point: constant (~7 days, model-specific)	0.0986	0.951	-0.088	0.508	0.999
in vitro model: butyrate, time point: terminal (~4-5 doublings, model-specific)	0.0792	0.98	-0.0855	0.521	0.588
in vitro model: cholesterol 0.05 mM, time point: constant (~7 days, model-specific)	0.118	0.666	0.0951	0.541	–
in vitro model: cholesterol 0.05 mM, time point: terminal (~4-5 doublings, model-specific)	0.0787	0.8	-0.0213	1.11	1.88
in vitro model: cholesterol-high 0.2 mM, time point: constant (~7 days, model-specific)	0.0889	0.959	-0.471	0.542	–
in vitro model: cholesterol-high 0.2 mM, time point: terminal (~4-5 doublings, model-specific)	0.0744	0.999	-0.743	0.993	0.67
in vitro model: dormancy (butyrate + nitrate, low O2), time point: constant (~7 days, model-specific)	0.0787	0.9	0.166	0.0637	-0.201
in vitro model: dormancy (butyrate + nitrate, low O2), time point: terminal (~4-5 doublings, model-specific)	0.0623	0.989	-0.337	0.174	0.32
in vitro model: standard 7H9 glycerol, time point: constant = terminal	0.111	0.942	-0.0519	0.0163	1.07
in vitro model: valerate, time point: constant (~7 days, model-specific)	0.118	0.858	0.0326	0.882	–
in vitro model: valerate, time point: terminal (~4-5 doublings, model-specific)	0.0644	0.907	0.0296	0.418	-0.138
